Experimental data: ChEMBL document CHEMBL3046218, “Characterization of sensitivity of Rhizoctonia solani, causing rice sheath blight, to mepronil and boscalid” (Crop Prot, 2009)
In brackets after ≈: the same amount, converted by molar mass.

Each compound was assayed on Rhizoctonia solani (assay: Resistant factor, ratio of EC50 for mepronil-resistant Rhizoctonia solani ZJR1 to EC50 for mepronil-sensitive wild type Rhizoctonia solani ZJ-1). Conditions: not given.
Type: functional
`Cc1ccccc1C(=O)Nc1cccc(OC(C)C)c1` [MEPRONIL] was tested, and the “Ratio EC50” value was 116.7.

These compounds were tested on Rhizoctonia solani (assay: Antifungal activity against mepronil-resistant Rhizoctonia solani JSR3 after 2 days). Conditions: JSR3, 48 h.
Type: functional, organism-based
Compound `CO/C=C(/C(=O)OC)c1ccccc1Oc1cc(Oc2ccccc2C#N)ncn1` [AZOXYSTROBIN] has an EC50 of 0.19 µg/mL (≈ 0.471 µM).
`O=C(Nc1ccccc1-c1ccc(Cl)cc1)c1cccnc1Cl` [BOSCALID] showed an EC50 of 2.08 µg/mL (≈ 6.06 µM).
For `CO/N=C(/C(=O)OC)c1ccccc1COc1ccccc1C` [KRESOXIM-METHYL], the EC50 was 0.16 µg/mL (≈ 0.511 µM).
`Cc1ccccc1C(=O)Nc1cccc(OC(C)C)c1` [MEPRONIL] was tested, and the EC50 was 20.6 µg/mL (≈ 76.3 µM).
In the case of `OCC1=C[C@H](N[C@H]2C[C@H](CO)[C@@H](O[C@@H]3O[C@H](CO)[C@@H](O)[C@H](O)[C@H]3O)[C@H](O)[C@H]2O)[C@H](O)[C@@H](O)[C@@H]1O` [VALIDAMYCIN], the EC50 is reported as 0.14 µg/mL (≈ 0.281 µM).

What follows are compounds tested on Rhizoctonia solani (assay: Antifungal activity against mepronil-resistant Rhizoctonia solani JSR2 after 2 days). Conditions: JSR2, 48 h.
Type: functional, organism-based
In the case of `CO/C=C(/C(=O)OC)c1ccccc1Oc1cc(Oc2ccccc2C#N)ncn1` [AZOXYSTROBIN], the EC50 is reported as 0.18 µg/mL (≈ 0.446 µM).
Compound `O=C(Nc1ccccc1-c1ccc(Cl)cc1)c1cccnc1Cl` [BOSCALID] has an EC50 of 2.13 µg/mL (≈ 6.21 µM).
For `CO/N=C(/C(=O)OC)c1ccccc1COc1ccccc1C` [KRESOXIM-METHYL], the EC50 was 0.14 µg/mL (≈ 0.447 µM).
Compound `Cc1ccccc1C(=O)Nc1cccc(OC(C)C)c1` [MEPRONIL] has an EC50 of 14.2 µg/mL (≈ 52.6 µM).
`OCC1=C[C@H](N[C@H]2C[C@H](CO)[C@@H](O[C@@H]3O[C@H](CO)[C@@H](O)[C@H](O)[C@H]3O)[C@H](O)[C@H]2O)[C@H](O)[C@@H](O)[C@@H]1O` [VALIDAMYCIN] was tested, and the EC50 was 0.18 µg/mL (≈ 0.362 µM).

Each compound was assayed on Rhizoctonia solani (assay: Antifungal activity against mepronil-resistant Rhizoctonia solani JSR1 after 2 days). Conditions: JSR1, 48 h.
Type: functional, organism-based
Work on `CO/C=C(/C(=O)OC)c1ccccc1Oc1cc(Oc2ccccc2C#N)ncn1` [AZOXYSTROBIN] yielded an EC50 of 0.17 µg/mL (≈ 0.421 µM).
For `O=C(Nc1ccccc1-c1ccc(Cl)cc1)c1cccnc1Cl` [BOSCALID], the EC50 was 2.26 µg/mL (≈ 6.58 µM).
Work on `CO/N=C(/C(=O)OC)c1ccccc1COc1ccccc1C` [KRESOXIM-METHYL] yielded an EC50 of 0.2 µg/mL (≈ 0.638 µM).
Work on `Cc1ccccc1C(=O)Nc1cccc(OC(C)C)c1` [MEPRONIL] yielded an EC50 of 8.56 µg/mL (≈ 31.8 µM).
With `OCC1=C[C@H](N[C@H]2C[C@H](CO)[C@@H](O[C@@H]3O[C@H](CO)[C@@H](O)[C@H](O)[C@H]3O)[C@H](O)[C@H]2O)[C@H](O)[C@@H](O)[C@@H]1O` [VALIDAMYCIN] the EC50 was 0.16 µg/mL (≈ 0.322 µM).

The compounds below were run on Rhizoctonia solani (assay: Antifungal activity against mepronil-sensitive wild type Rhizoctonia solani JS7 after 2 days). Conditions: JS7, 48 h.
Type: functional, organism-based
`CO/C=C(/C(=O)OC)c1ccccc1Oc1cc(Oc2ccccc2C#N)ncn1` [AZOXYSTROBIN] showed an EC50 of 0.19 µg/mL (≈ 0.471 µM).
`O=C(Nc1ccccc1-c1ccc(Cl)cc1)c1cccnc1Cl` [BOSCALID] was tested, and the EC50 was 2.15 µg/mL (≈ 6.26 µM).
With `CO/N=C(/C(=O)OC)c1ccccc1COc1ccccc1C` [KRESOXIM-METHYL] the EC50 was 0.16 µg/mL (≈ 0.511 µM).
In the case of `Cc1ccccc1C(=O)Nc1cccc(OC(C)C)c1` [MEPRONIL], the EC50 is reported as 0.098 µg/mL (≈ 0.364 µM).
`OCC1=C[C@H](N[C@H]2C[C@H](CO)[C@@H](O[C@@H]3O[C@H](CO)[C@@H](O)[C@H](O)[C@H]3O)[C@H](O)[C@H]2O)[C@H](O)[C@@H](O)[C@@H]1O` [VALIDAMYCIN] showed an EC50 of 0.18 µg/mL (≈ 0.362 µM).

The compounds below were run on Rhizoctonia solani (assay: Antifungal activity against mepronil-resistant Rhizoctonia solani ZJR2 after 2 days). Conditions: ZJR2, 48 h.
Type: functional, organism-based
`CO/C=C(/C(=O)OC)c1ccccc1Oc1cc(Oc2ccccc2C#N)ncn1` [AZOXYSTROBIN] gave an EC50 of 0.34 µg/mL (≈ 0.843 µM).
`O=C(Nc1ccccc1-c1ccc(Cl)cc1)c1cccnc1Cl` [BOSCALID] gave an EC50 of 2.15 µg/mL (≈ 6.26 µM).
Work on `CO/N=C(/C(=O)OC)c1ccccc1COc1ccccc1C` [KRESOXIM-METHYL] yielded an EC50 of 0.29 µg/mL (≈ 0.925 µM).
In the case of `Cc1ccccc1C(=O)Nc1cccc(OC(C)C)c1` [MEPRONIL], the EC50 is reported as 12.7 µg/mL (≈ 47 µM).
In the case of `OCC1=C[C@H](N[C@H]2C[C@H](CO)[C@@H](O[C@@H]3O[C@H](CO)[C@@H](O)[C@H](O)[C@H]3O)[C@H](O)[C@H]2O)[C@H](O)[C@@H](O)[C@@H]1O` [VALIDAMYCIN], the EC50 is reported as 0.09 µg/mL (≈ 0.181 µM).

These compounds were tested on Rhizoctonia solani (assay: Antifungal activity against mepronil-resistant Rhizoctonia solani ZJR3 after 2 days). Conditions: ZJR3, 48 h.
Type: functional, organism-based
`CO/C=C(/C(=O)OC)c1ccccc1Oc1cc(Oc2ccccc2C#N)ncn1` [AZOXYSTROBIN] gave an EC50 of 0.32 µg/mL (≈ 0.793 µM).
Compound `O=C(Nc1ccccc1-c1ccc(Cl)cc1)c1cccnc1Cl` [BOSCALID] has an EC50 of 1.93 µg/mL (≈ 5.62 µM).
`CO/N=C(/C(=O)OC)c1ccccc1COc1ccccc1C` [KRESOXIM-METHYL] gave an EC50 of 0.37 µg/mL (≈ 1.18 µM).
Work on `Cc1ccccc1C(=O)Nc1cccc(OC(C)C)c1` [MEPRONIL] yielded an EC50 of 20.8 µg/mL (≈ 77.3 µM).
`OCC1=C[C@H](N[C@H]2C[C@H](CO)[C@@H](O[C@@H]3O[C@H](CO)[C@@H](O)[C@H](O)[C@H]3O)[C@H](O)[C@H]2O)[C@H](O)[C@@H](O)[C@@H]1O` [VALIDAMYCIN] showed an EC50 of 0.1 µg/mL (≈ 0.201 µM).

The compounds below were run on Rhizoctonia solani (assay: Antifungal activity against mepronil-resistant Rhizoctonia solani ZJR1 after 2 days). Conditions: ZJR1, 48 h.
Type: functional, organism-based
`CO/C=C(/C(=O)OC)c1ccccc1Oc1cc(Oc2ccccc2C#N)ncn1` [AZOXYSTROBIN] gave an EC50 of 0.32 µg/mL (≈ 0.793 µM).
`O=C(Nc1ccccc1-c1ccc(Cl)cc1)c1cccnc1Cl` [BOSCALID] was tested, and the EC50 was 1.87 µg/mL (≈ 5.45 µM).
`CO/N=C(/C(=O)OC)c1ccccc1COc1ccccc1C` [KRESOXIM-METHYL] showed an EC50 of 0.33 µg/mL (≈ 1.05 µM).
For `Cc1ccccc1C(=O)Nc1cccc(OC(C)C)c1` [MEPRONIL], the EC50 was 13.5 µg/mL (≈ 50.3 µM).
`OCC1=C[C@H](N[C@H]2C[C@H](CO)[C@@H](O[C@@H]3O[C@H](CO)[C@@H](O)[C@H](O)[C@H]3O)[C@H](O)[C@H]2O)[C@H](O)[C@@H](O)[C@@H]1O` [VALIDAMYCIN] showed an EC50 of 0.08 µg/mL (≈ 0.161 µM).

What follows are compounds tested on Rhizoctonia solani (assay: Antifungal activity against mepronil-sensitive wild type Rhizoctonia solani ZJ-1 after 2 days). Conditions: ZJ-1, 48 h.
Type: functional, organism-based
`CO/C=C(/C(=O)OC)c1ccccc1Oc1cc(Oc2ccccc2C#N)ncn1` [AZOXYSTROBIN] gave an EC50 of 0.32 µg/mL (≈ 0.793 µM).
For `O=C(Nc1ccccc1-c1ccc(Cl)cc1)c1cccnc1Cl` [BOSCALID], the EC50 was 1.98 µg/mL (≈ 5.77 µM).
`CO/N=C(/C(=O)OC)c1ccccc1COc1ccccc1C` [KRESOXIM-METHYL] showed an EC50 of 0.34 µg/mL (≈ 1.09 µM).
`OCC1=C[C@H](N[C@H]2C[C@H](CO)[C@@H](O[C@@H]3O[C@H](CO)[C@@H](O)[C@H](O)[C@H]3O)[C@H](O)[C@H]2O)[C@H](O)[C@@H](O)[C@@H]1O` [VALIDAMYCIN] gave an EC50 of 0.09 µg/mL (≈ 0.181 µM).

What follows are compounds tested on Rhizoctonia solani (assay: Resistant factor, ratio of EC50 for mepronil-resistant Rhizoctonia solani JSR3 to EC50 for mepronil-sensitive wild type Rhizoctonia solani JS7). Conditions: not given.
Type: functional
For `Cc1ccccc1C(=O)Nc1cccc(OC(C)C)c1` [MEPRONIL], the “Ratio EC50” value was 209.8.

The compounds below were run on Rhizoctonia solani (assay: Resistant factor, ratio of EC50 for mepronil-resistant Rhizoctonia solani JSR2 to EC50 for mepronil-sensitive wild type Rhizoctonia solani JS7). Conditions: not given.
Type: functional
`Cc1ccccc1C(=O)Nc1cccc(OC(C)C)c1` [MEPRONIL] was tested, and the “Ratio EC50” value was 144.5.

Each compound was assayed on Rhizoctonia solani (assay: Resistant factor, ratio of EC50 for mepronil-resistant Rhizoctonia solani JSR1 to EC50 for mepronil-sensitive wild type Rhizoctonia solani JS7). Conditions: not given.
Type: functional
In the case of `Cc1ccccc1C(=O)Nc1cccc(OC(C)C)c1` [MEPRONIL], the “Ratio EC50” value is reported as 87.3.

These compounds were tested on Rhizoctonia solani (assay: Resistant factor, ratio of EC50 for mepronil-resistant Rhizoctonia solani ZJR3 to EC50 for mepronil-sensitive wild type Rhizoctonia solani ZJ-1). Conditions: not given.
Type: functional
For `Cc1ccccc1C(=O)Nc1cccc(OC(C)C)c1` [MEPRONIL], the “Ratio EC50” value was 179.5.

Each compound was assayed on Rhizoctonia solani (assay: Resistant factor, ratio of EC50 for mepronil-resistant Rhizoctonia solani ZJR2 to EC50 for mepronil-sensitive wild type Rhizoctonia solani ZJ-1). Conditions: not given.
Type: functional
For `Cc1ccccc1C(=O)Nc1cccc(OC(C)C)c1` [MEPRONIL], the “Ratio EC50” value was 109.2.
